Data reported in US8501752B2, “Methods for treating cancer and other pathological proliferating disorders by inhibiting mitosis using pyrrolo[2,3-d]pyrimidines” (Duquesne University of the Holy Ghost, priority 2005, dated 2013).

Experiments:
[1] = test system: BT-549; experiment: NCI IVCLSP growth inhibition (SRB), BT-549; format: cell-based, human; settings: 48 h drug incubation
Description: (§1) FIG. 1 presents nine compounds that were tested using the National Cancer Institute (NCI) 60 human tumor cell lines. The cells lines, which represent leukemia, melanoma, and cancers of the lung, colon, brain, ovary, breast, prostate, and kidney, are listed in Table 1.
(§2) Compounds 1-9 were tested according to the NCI Developmental Therapeutics Program (DTP) In Vitro Cell Line Screening Project (IVCLSP). […] Methodology for testing under the IVCLSP is as follows: The human tumor cell lines of the cancer screening panel are grown in RPMI 1640 medium containing 5% fetal bovine serum and 2 mM L-glutamine. […]
(§3) Following drug addition, the plates are incubated for an additional 48 h at 37° C., 5% CO2, 95% air, and 100% relative humidity. […] Bound stain is subsequently solubilized with 10 mM trizma base, and the absorbance is read on an automated plate reader at a wavelength of 515 nm. […] Using the seven absorbance measurements [time zero, (Tz), control growth, (C), and test growth in the presence of drug at the five concentration levels (Ti)], the percentage growth is calculated at each of the drug concentrations levels. Percentage growth inhibition is calculated as: [(Ti−Tz)/(C−Tz)]×100 for concentrations for which Ti>/=Tz [(Ti−Tz)/Tz]×100 for concentrations for which Ti<Tz.
(§4) Three dose response parameters are calculated for each experimental agent. […]

[2] = molecular target: T1, P-glycoprotein (Homo sapiens, UniProt P08183); experiment: P-glycoprotein antagonism: sensitivity of NCI/ADR cells to vinblastine; format: cell-based; settings: absence or presence of 50 nM vinblastine
T1 construct: NCI/ADR cells that overexpress P-glycoprotein; endogenous in cells; host or cells: NCI/ADR cells
Excerpt: To determine if this is due to inhibition of drug transport activity by these proteins, the effects of these compounds on P-glycoprotein were further characterized. The effects of the compounds on the sensitivity of NCI/ADR cells to vinblastine and of MCF-7/VP cells to vincristine were examined to evaluate antagonism of P-glycoprotein and MRP1, respectively. FIGS. 4a-b present graphs of antagonism score versus concentration for P-glycoprotein and MRP1, respectively.
The Pgp antagonism score is calculated as the percentage survival of cells in the absence of vinblastine/percentage survival in the presence of vinblastine. […] The MRP1 antagonism score is calculated as the percentage survival of cells in the absence of vincristine/percentage survival in the presence of vincristine. […] Concentrations of Compounds 1-5 above their IC50 toward MCF-7 cells are not indicated. Data for one of three similar experiments is shown.

[3] = test system: UACC-257; experiment: NCI IVCLSP growth inhibition (SRB), UACC-257; format: cell-based, human; settings: 48 h drug incubation
Description: as §1, §2, §3, §4

[4] = test system: OVCAR-8; experiment: NCI IVCLSP growth inhibition (SRB), OVCAR-8; format: cell-based, human; settings: 48 h drug incubation
Description: as §1, §2, §3, §4

[5] = test system: UO-31; experiment: NCI IVCLSP growth inhibition (SRB), UO-31; format: cell-based, human; settings: 48 h drug incubation
Description: as §1, §2, §3, §4

[6] = test system: RXF 393; experiment: NCI IVCLSP growth inhibition (SRB), RXF 393; format: cell-based, human; settings: 48 h drug incubation
Description: as §1, §2, §3, §4

[7] = test system: OVCAR-3; experiment: NCI IVCLSP growth inhibition (SRB), OVCAR-3; format: cell-based, human; settings: 48 h drug incubation
Description: as §1, §2, §3, §4

[8] = test system: A498; experiment: NCI IVCLSP growth inhibition (SRB), A498; format: cell-based, human; settings: A498; 48 h drug incubation, SRB
Description: as §1, §2, §3, §4

[9] = test system: HCT-15; experiment: NCI IVCLSP growth inhibition (SRB), HCT-15; format: cell-based, human; settings: 48 h drug incubation
Description: as §1, §2, §3, §4

[10] = test system: OVCAR-5; experiment: NCI IVCLSP growth inhibition (SRB), OVCAR-5; format: cell-based, human; settings: 48 h drug incubation
Description: as §1, §2, §3, §4

[11] = test system: MDA-MB-435; experiment: NCI IVCLSP growth inhibition (SRB), MDA-MB-435; format: cell-based, human; settings: 48 h drug incubation
Description: as §1, §2, §3, §4

[12] = test system: A-10 rat smooth muscle cells; experiment: Microtubule structure, indirect immunofluorescence, A-10 cells; format: cell-based; settings: 24 hours; 625 nM TAXOL, 167 nM vinblastine, 900 nM Compound 1
Description: Because of the morphological effects of Compound 1 on cultured cells and the NCI COMPARE analysis results described above, the effects of vinblastine, TAXOL (paclitaxel), and Compound 1 on microtubule structure were examined. For these studies, A-10 rat smooth muscle cells were used since they grow as flat monolayers that are amenable to imaging. The A-10 cells were treated for 24 hours with EtOH (control), 625 nM TAXOL (paclitaxel), 167 nM vinblastine, and 900 nM of Compound 1. Microtubules were then visualized by indirect immunofluoresence staining with B-tubulin antibodies. FIGS. 2a-d present representative fields for the control, TAXOL (paclitaxel), vinblastine, and Compound 1 (“149”), respectively. None of these compounds affected the morphology of stress fibers composed of microfilaments.

[13] = test system: SNB-19; experiment: NCI IVCLSP growth inhibition (SRB), SNB-19; format: cell-based, human; settings: 48 h drug incubation
Description: as §1, §2, §3, §4

T1 sequence (P08183 whole entry): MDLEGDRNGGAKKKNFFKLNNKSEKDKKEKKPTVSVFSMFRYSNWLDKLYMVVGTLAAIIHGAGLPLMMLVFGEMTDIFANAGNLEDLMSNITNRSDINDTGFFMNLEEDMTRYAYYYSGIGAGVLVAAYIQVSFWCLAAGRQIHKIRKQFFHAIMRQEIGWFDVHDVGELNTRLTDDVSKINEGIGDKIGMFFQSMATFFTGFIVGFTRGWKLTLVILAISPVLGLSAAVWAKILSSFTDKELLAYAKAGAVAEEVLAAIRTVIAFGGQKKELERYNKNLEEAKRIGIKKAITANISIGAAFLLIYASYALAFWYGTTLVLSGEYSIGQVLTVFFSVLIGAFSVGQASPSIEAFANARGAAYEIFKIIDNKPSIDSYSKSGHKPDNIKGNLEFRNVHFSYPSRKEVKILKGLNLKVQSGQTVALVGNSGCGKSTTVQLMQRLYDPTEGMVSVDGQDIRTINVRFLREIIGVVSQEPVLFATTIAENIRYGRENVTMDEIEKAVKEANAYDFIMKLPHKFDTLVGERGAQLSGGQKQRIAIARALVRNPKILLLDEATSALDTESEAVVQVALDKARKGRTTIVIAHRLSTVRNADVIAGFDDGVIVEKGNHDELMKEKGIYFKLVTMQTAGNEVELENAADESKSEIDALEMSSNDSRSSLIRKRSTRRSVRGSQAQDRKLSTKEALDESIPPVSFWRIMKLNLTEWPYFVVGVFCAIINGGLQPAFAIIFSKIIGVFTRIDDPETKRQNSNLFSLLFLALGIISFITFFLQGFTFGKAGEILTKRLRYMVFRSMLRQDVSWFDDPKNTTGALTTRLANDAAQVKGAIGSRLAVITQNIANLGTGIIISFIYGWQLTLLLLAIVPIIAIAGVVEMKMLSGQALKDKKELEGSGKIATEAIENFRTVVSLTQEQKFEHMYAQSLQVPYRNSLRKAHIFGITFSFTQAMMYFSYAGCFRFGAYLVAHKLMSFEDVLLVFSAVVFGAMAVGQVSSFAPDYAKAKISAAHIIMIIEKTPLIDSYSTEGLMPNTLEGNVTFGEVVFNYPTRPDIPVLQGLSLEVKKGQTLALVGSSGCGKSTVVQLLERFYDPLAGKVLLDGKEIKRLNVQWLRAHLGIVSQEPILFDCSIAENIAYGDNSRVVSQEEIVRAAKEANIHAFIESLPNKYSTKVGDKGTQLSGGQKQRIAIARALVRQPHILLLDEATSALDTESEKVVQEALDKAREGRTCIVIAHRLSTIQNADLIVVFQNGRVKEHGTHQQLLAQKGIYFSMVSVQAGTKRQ

Question: For `COc1cc(CCc2cn(Cc3ccccc3)c3nc(N)nc(C)c23)cc(OC)c1OC` [Compound 1], which GI50 [1] is on record?
Answer: > 1000 nM

Question: And the “effect on P-glycoprotein-mediated resistance (in words)” value [2]?
Answer: no affect on P-glycoprotein at doses below its IC50

Question: What about the GI50 [3] of the same molecule?
Answer: 80.2 nM

Question: And the GI50 [4]?
Answer: 364 nM

Question: What about the GI50 [5] of the same molecule?
Answer: 347 nM

Question: What about the GI50 [6] of the same molecule?
Answer: 134 nM

Question: And the GI50 [7]?
Answer: 28.8 nM

Question: And the GI50 [8]?
Answer: 136 nM

Question: What about the GI50 [9] of the same molecule?
Answer: 127 nM

Question: What about the GI50 [10] of the same molecule?
Answer: > 1000 nM

Question: What about the GI50 [11] of the same molecule?
Answer: 10.1 nM

Question: What about the “effect on microtubule structure (in words)” value [12] of the same molecule?
Answer: caused dose-dependent losses of microtubules

Question: What about the GI50 [13] of the same molecule?
Answer: 273 nM
